Experimental data as given in article PMC8234864, “Early Effects of the Soluble Amyloid β25-35 Peptide in Rat Cortical Neurons: Modulation of Signal Transduction Mediated by Adenosine and Group I Metabotropic Glutamate Receptors” (International Journal of Molecular Sciences, 2021).
Several values for one entry are separate records, joined by “and”; a condition that tells them apart may be missing. Equal values may be shown once. Where no end group is shown, it is not given here.

Experiments:
CREB gene expression = CREB gene expression by real-time PCR; format: cell-based, rat; settings: 25 µM, 24 or 48 h
Description: (§1) Total RNA was extracted using an ABI 6100 Nucleic Acid PrepStation according to the manufacturer’s protocol (Applied Biosystems Inc., Foster City, CA, USA). Total RNA from cells was isolated and stored at −80 °C. The quality of isolated RNA was estimated by the ratio A260/A280 and was in the range of 1.9–2.1. RNA integrity was evaluated by agarose gel electrophoresis according to MIQE guidelines using the “bleach gel” method. RNA concentrations were determined from the A260. One microgram of total RNA was reverse transcribed using Applied Biosystems High-Capacity cDNA Archive Kit.
(§2) To assess relative gene expression in neurons, quantitative real-time RT-PCR analysis was performed with an Applied Biosystems Prism 7500 Fast Sequence Detection System using TaqMan® universal PCR master mix according to the manufacturer’s specifications. […] Levels of RNA expression were determined using the 7500 Fast System SDS software version 1.3.1 (Applied Biosystems) according to the 2^−ΔΔCt method. […] The results from three independent repeat assays, performed in different plates each using different cDNA’s from the cultures analyzed, were averaged to produce a single mean quantity value for each mRNA.

CREM gene expression = CREM gene expression by real-time PCR; format: cell-based, rat; settings: 25 µM, 24 or 48 h
Description: as §1, §2

[1] = system: Group I mGluR/PLC signalling pathway; test: Phospholipase C activity (IP3 accumulation), basal and DHPG-stimulated; format: cell-based, rat
Description: This method was previously reported and is divided into two well-defined steps: IP3 accumulation: culture medium was discharged, and cells were washed twice with DMEM containing 20 mM HEPES, pH 7.4. After 20 min at 37 °C, different ligands were added to cells for 10 min at 37 °C to analyse their effect on PLC activity in a final reaction volume of 300 μL. The enzymatic reaction was stopped and cells lysed by adding 50 μL 2.8 M perchloric acid and placing plates on ice for 30 min. The medium was neutralized with 70 μ[…] Tris-HCl, 2 M KOH, and 60 mM EGTA, transferred to Eppendorf tubes and centrifuged at 12,000× g for 10 min. The supernatant was then collected to determine the IP3 level. IP3 level determination: IP3 levels in cells were determined as previously reported by Palmer and modified by […] [100]. Incubation of [^3H]IP3 (0.2 pmol; 3000-5000 cpm) in assay buffer (100 mM Tris-HCl, 4 mM EDTA, 4 mM EGTA, 4 mg/mL BSA, pH 9.0), binding protein (500-600 μg), and 25-50 μL of supernatant obtained from IP3 accumulation assay was carried out. Samples were incubated at 4 °C for 60 min and centrifuged at 12,000× g for 10 min. Pellets were suspended in 100 μL 0.2% SDS and transferred to scintillation vials to measure radioactivity. A standard curve was made with known [^3H]IP3 concentrations (0.25-10 μM). Nonspecific binding was determined in the presence of 10 μM unlabeled IP3. Binding protein was obtained from bovine suprarenal capsules according to Palmer's protocol.

A2AR = target: T1, A2AR (Rattus norvegicus, UniProt P30543); test: [3H]ZM241385 radioligand binding in intact cortical neurons; settings: for A2AR Bmax: [3H]ZM241385 saturation binding
T1 construct: endogenous in cells; host or cells: rat primary cortical neurons (intact)
Description: Concerning adenosine receptor assessment by radioligand binding, [^3H]DPCPX and [^3H]ZM241385 were employed as selective A1R and A2AR radioligands, as described previously, to determine A1R and A2AR density, respectively. Briefly, primary cortical neurons growth in 24-well plates were washed with serum-free DMEM and pre-incubated with 2 U/mL ADA at 37 °C for 30 min to remove endogenous adenosine. After incubation, the radioligands [^3H]DPCPX (1–20 nM) or [^3H] ZM241385 (1–20 nM) were added in the absence or the presence of CPA in a concentration 10^4 times higher than the radioligand, to obtain non-specific binding to A1R, or 5 mM theophylline, to obtain non-specific binding to A2AR. A specific adenosine uptake inhibitor (1 µM dipyridamole) was added to the reaction mixture to block adenosine receptor ligands’ binding to adenosine transporters. After incubation at 25 °C for 2 h in a final volume of 250 µL, cells were washed with 500 µL of ice-cold buffer and disrupted with 0.2% SDS. Well contents were then transferred to vials and a scintillation liquid mixture was added to measure radioactivity. Two wells from each plate were reserved for protein concentration measurement.

[2] = neurons exposed to 25 µM for 24 h
[3] = neurons exposed to 25 µM for 48 h

T1 sequence (P30543 whole entry): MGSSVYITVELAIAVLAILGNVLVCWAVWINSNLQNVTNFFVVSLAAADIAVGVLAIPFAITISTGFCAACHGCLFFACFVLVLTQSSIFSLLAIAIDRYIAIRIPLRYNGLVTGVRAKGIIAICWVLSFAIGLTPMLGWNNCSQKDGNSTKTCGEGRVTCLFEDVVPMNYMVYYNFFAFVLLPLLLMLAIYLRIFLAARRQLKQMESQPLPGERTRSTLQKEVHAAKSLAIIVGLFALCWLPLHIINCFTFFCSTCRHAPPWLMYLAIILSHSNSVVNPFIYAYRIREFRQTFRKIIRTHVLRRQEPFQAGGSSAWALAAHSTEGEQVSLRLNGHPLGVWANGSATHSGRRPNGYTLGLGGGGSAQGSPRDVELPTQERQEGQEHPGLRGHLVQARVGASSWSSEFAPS

GSNKGAIIGLM [Aβ25-35]
CREB gene expression (CREB gene expression): decrease
CREM gene expression (CREM gene expression): decrease
decrease in DHPG-stimulated PLC activity ([1]; 25 µM, 24 h, 30 µM DHPG for 10 min): 13%
basal PLC activity ([1]; neurons exposed to 25 µM for 24 h, unstimulated, absence of DHPG): 17.61 ± 4.85 pmol/mg/min and 17.6 ± 4.8 pmol/mg/min
A2AR affinity (1/KD), change vs control (A2AR; 25 µM, 24 or 48 h): no significant variation
Total A2AR density (Bmax), change vs control (A2AR; 25 µM, 24 h): not altered
Total A2AR density (Bmax) increase over control value (A2AR; 25 µM, 48 h): 80%
Kd (A2AR; [2]): 10.3 ± 1.22 nM
A2AR Bmax (A2AR; [2]): 557 ± 56 fmol/mg prot
Kd (A2AR; [3]): 14 ± 4.69 nM
A2AR Bmax (A2AR; [3]): 1178 ± 43 fmol/mg prot
